Inhibition and IC50 data for 5 molecules are collected here from ChEMBL document CHEMBL1150143, “Aldehyde dehydrogenase inhibitors from the mushroom Clitocybe clavipes” (J Nat Prod, 2002).

Assay [1] deals with T1, Aldehyde dehydrogenase 1, mitochondrial (Saccharomyces cerevisiae) (UniProt P22281).
T1 sequence (whole entry): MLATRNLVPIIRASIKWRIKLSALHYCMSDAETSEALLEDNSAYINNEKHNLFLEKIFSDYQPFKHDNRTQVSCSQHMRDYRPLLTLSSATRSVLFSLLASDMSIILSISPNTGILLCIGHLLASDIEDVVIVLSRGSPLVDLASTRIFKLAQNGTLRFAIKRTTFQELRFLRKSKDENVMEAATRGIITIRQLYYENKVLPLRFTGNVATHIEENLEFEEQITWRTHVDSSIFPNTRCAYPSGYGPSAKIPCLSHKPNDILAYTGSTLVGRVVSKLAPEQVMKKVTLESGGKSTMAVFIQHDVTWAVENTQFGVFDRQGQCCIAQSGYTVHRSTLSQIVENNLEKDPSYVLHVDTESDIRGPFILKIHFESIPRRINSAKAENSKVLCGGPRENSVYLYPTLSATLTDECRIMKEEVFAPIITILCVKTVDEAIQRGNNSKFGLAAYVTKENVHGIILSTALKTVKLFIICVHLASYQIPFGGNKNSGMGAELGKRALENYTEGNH
The assay can be described thus: Inhibition of yeast aldehyde dehydrogenase at 0.5 mM by spectrophotometry following NADH formation at 340 nm.

Assay [2] has as its target T2, Aldehyde dehydrogenase 1, mitochondrial (Saccharomyces cerevisiae, UniProt P22281).
T2 sequence (P22281 whole entry): T1 sequence (whole entry)
As to the kind of experiment: Inhibition of yeast aldehyde dehydrogenase by spectrophotometry following NADH formation at 340 nm.

For the molecule `CCCCCC(=O)/C=C/C=C/CCCCCCCC(=O)OCC(O)CO` (stereo not given), the inhibition in assay [1] is < 50%.
In assay [2], `CCCCCCCC/C=C/C(=O)CCCCCCC(=O)OCC` returned an IC50 of 430 µM.
For `CCCCC/C=C/C=C/C(=O)CCCCCCCC(=O)O`, in assay [1], the inhibition was < 50%.
With `CCCCCCCC/C=C/C(=O)CCCCCCC(=O)O`, in assay [2], the IC50 stood at 280 µM.
Molecule `CCCCCC/C=C/C(=O)CCCCCCC(=O)OCC` came in with an IC50 in assay [2] of 170 µM.

As usually defined, the inhibition is how much of the control response was suppressed. One may read the IC50 as the point on the concentration scale where inhibition reaches its midpoint. A low value points to greater potency.
